Entries after “also recorded” stand apart in the source; their conditions may differ.
Experiments:
[1] = system: juxtaglomerular (JG) cells; test: Renin mRNA expression in cultured JG cells treated with prostanoid agonists (real time RT-PCR); type: cell-based, mouse
Experimental: Culture of Juxtaglomerular (JG) cells: JG cells were prepared as described (Fujino et al., 2004, J Clin Invest. 114: 805-812). The kidneys were removed, decapsulated, minced with a surgical blade, incubated with 0.1% collagenase for 15 minutes at 37° C. and filtered through a 40 μm nylon mesh. The filtered cells were placed on 15 ml of 30% isosmotic Percoll solution (Amersham Biosciences) and centrifuged at 27,000 g for 20 minutes at 4° C. The cell layer near the surface, enriched with JG cells, was collected and washed. […] The resulting cDNA (40 ng) was used for quantitative real time PCR. Quantitative real time PCR Analysis of Gene Expression: TaqMan gene expression assays (Applied Biosystems, Foster City, Calif.; catalog No. 4331182) for FP (Mm004360055_m1), RENIN (Mm02342889_g1), TNFα (Mm00443258_m1), IL-1β (Mm00434228_m1), IL-12β (Mm01351787_m1), IL-4 (Mm00445259_m1,) IL-6 (Mm00446190_m1), IL-18 (Mm00434225_m1), iNOS (Mm01309902_m1), TGFβ (Mm00441724_m1), INFγ (Mm00801778_m1), IL-10 (Mm00439616_m1) were performed on an ABI Prism 7900 Sequence Detection System. […] An prostanoid agonist was administered as different concentrations and the expression of renin was monitored using real time RT-PCR. […]

[2] = system: JG cells; test: cAMP content in cultured cells rich in JG cells; type: cell-based, mouse; details: vs vehicle controls
From the text: (§1) FIGS. 5A-5E depict data related to renin expression resulting from activation of FP or prostacyclin (IP) receptor in in vitro cultures of juxtaglomerular apparatus cells obtained from WT or FP knockout mice. FIG. 5A is a graph depicting the effect of FP agonists Latanoprost (Lata) and Travoprost (Trav), and IP agonist Cicaprost (Cica) on renin mRNA expression in JG enriched cultured cells. Each point represents mean±SEMs of 4 cell groups, repeated 3 times. FIG. 5B is a bar graph illustrating the effect of effect of Latanoprost and Cicaprost on cAMP content in cultured cells rich in JG cells. Data are presented as cAMP fold change from 3-6 independent samples (6-well plate) from 3 independent experiments. *, p<0.05 vs vehicle controls, n=3. FIG. 5C is a graph of the original recording of membrance capacitance in a single mouse JG cell from WT mice. […] FIG. 5E is a graph of whole cell currents were measured in response to 11 pulses from −150 to +90 mV in 30-mV steps for 200 ms from a holding potential of −30 mV. Pulses were applied before and after superfusion with 1 μM Latanoprost. Mean steady-state current-voltage curves from 4 independent experiments before (cycle) and after (square) 20 min of capacitance measurements are given.
Culture of Juxtaglomerular (JG) cells: JG cells were prepared as described (Fujino et al., 2004, J Clin Invest. 114: 805-812). […]

[3] = system: single WT JG cells; test: Patch-clamp membrane capacitance of single JG cells; type: cell-based, mouse; details: single WT JG cells in vitro, 1 μM Latanoprost
From the text: as §1

[4] = system: renin secretion; details: Jensen et al., 1996; Fujino et al., 2004; cited from earlier work
[5] = system: WT and FP knockout mice; test: Mean arterial blood pressure after bolus of Ang II; type: in vivo, mouse; details: 50 ng/kg, acute intracarotid infusion, n=7
Experimental: FIGS. 3A-3C depicts data related to angiotensin II receptor (AT1) expression and blood pressure effects of Ang II injection in WT and FP knockout mice. FIG. 3A depicts AT1a and FIG. 3B depicts AT1b gene expression in aorta by real time RT-PCR. *p<0.01 (n=4) versus WT, repeated 3 times. FIG. 3C depicts blood pressure (BP) after Angiotengin II (Ang II) administration (50 ng/kg) compared with baseline in FP^−/− and WT littermates. Mean arterial BP was monitored in mice by pressure transducer connected to a catheter in left artery. Baseline BP is readout before injection. BP changes are depicted as difference between baseline and after injection at one min intervals. *p<0.01 versus WT, n=8-9.
Mean Arterial Blood Pressure (BP) Measurements: The right internal jugular vein and left carotid artery of anesthetized mice were cannulated with PE-10 tubing. The arterial catheter was connected to a Capto SP844 pressure transducer, and BP was monitored continuously with a PowerLab/8SP system. […]
To examine the acute effect of Ang II on blood pressure, WT and FPKO mice were sedated and subjected to a bolus infusion of Ang II. Blood pressure was measured directly using an arterial catheter connected to a pressure transducer. After the equilibration period and the baseline BP was recorded, mice were injected with a bolus of Ang II.

[6] = system: WT and FPKO mice; test: Mean arterial blood pressure after PGF2α administration; type: in vivo, mouse
Experimental: Mean Arterial Blood Pressure (BP) Measurements: The right internal jugular vein and left carotid artery of anesthetized mice were cannulated with PE-10 tubing. The arterial catheter was connected to a Capto SP844 pressure transducer, and BP was monitored continuously with a PowerLab/8SP system. Mice were injected via the right internal jugular vein with […] or PGF2α administration to exclude volume-mediated BP changes.
Given that the lacZ gene was knocked into the endogenous FP receptor locus in the FP targeting allele, the receptor expression pattern was monitored by mapping β-galactosidase (β-gal) activity. Scattered activity of β-gal was detectable in the medial smooth muscle layer of renal small arteries in FP^+/− mice (FIG. 6A), but was not evident in FP^+/− mouse aorta nor in the atherosclerotic lesions of Ldlr^−/−/FP^−/− mice (FIGS. 6B-6G). To assess the systemic effect of PGF2α, WT and FPKO mice were sedated in order to measure blood pressure directly in the heart. PGF2α was administered and blood pressure was monitored. Once blood pressure returned to baseline, the next dose of PGF2α was administered (FIG. 6H). Four doses of PGF2α were tested: 10 μg/kg body weight, 30 μg/kg, 90 μg/kg and […].

## CCC#CC[C@H](C)[C@H](O)C#C[C@@H]1[C@H]2C/C(=C/COCC(=O)O)C[C@H]2C[C@H]1O [Cicaprost]
[1]; JG cells from FPKO mice, 20 hours incubation, various concentrations
  expression of renin in JG cells from FPKO mice: stimulated
[1]; JG cells from WT vs FP−/− mice
  effects as a renin secretagogue, WT compared with FP−/− mice: similar
[2]
  JG cell cAMP: increase

## CC(C)OC(=O)CCC/C=C\C[C@@H]1[C@@H](CC[C@@H](O)CCc2ccccc2)[C@H](O)C[C@@H]1O [Latanoprost]
[3]
  change in membrane capacitance: no change
[2]
  JG cell cAMP: failed to increase

## CCCCC[C@H](O)/C=C/[C@H]1[C@H](O)CC(=O)[C@@H]1C/C=C\CCCC(=O)O [PGE2]
[4]
  renin secretagogue activity: potent renin secretagogues

## CCCCC[C@H](O)/C=C/[C@@H]1[C@H]2C/C(=C/CCCC(=O)O)O[C@H]2C[C@H]1O [Prostacyclin (PGI2), Prostacyclin]
[4]
  renin secretagogue activity: potent renin secretagogues

## angiotensin II (DRVYIHPF; Angiotensin-2; UniProt P01019 25-32, looked up) [Ang II, Ang II peptide, a powerful vasoconstrictor]
[5]; FP KO mice
  hypertensive response to acute infusion of Ang II in FP KO mice: 37.5±5.6
[5]; WT controls
  hypertensive response to acute infusion of Ang II in WT controls: 20.3±4.7

## prostaglandin F2α [PGF2α]
[4]
  renin secretagogue activity: not
[6]; FPKO mice, 10, 30, 90, 270 μg/kg
  blood pressure after PGF2α administration in FPKO mice: not
[6]; FP−/− mice, highest rate of infusion
  blood pressure in FP−/− mice at the highest rate of infusion: rise in blood pressure
[6]; WT mice, 10, 30, 90, 270 μg/kg
  blood pressure after PGF2α administration in WT mice: increased; also recorded: dose dependent
